# Laboratory results published in patent publication US9987399B2, “Non-biodegradable stent comprising a biodegradable coating and method of coating the same” (Nanyang Technological University, priority 2007, dated 2018).
# Test system: platelets (platelet rich plasma)
# Experiment: In vitro thrombogenicity/platelet adhesion, dynamic method with I-125 labeled PRP
# Type: cell-based, Human
# Conditions: 10% loading in PLGA 80/20 coating on metal strips, 2 hours perfusion at 40 mL min^−1; FIG. 5
# Experimental: Metal strips with coatings of PLGA 80/20 containing varying amounts of triflusal (4, 7 and 10 wt %) were tested for thrombogenicity/platelet adhesion using a dynamic method. Human blood was collected and anti-coagulated. Platelet rich plasma (PRP) was then prepared from the blood, and labeled with radioactive iodine, I-125. The test samples were exposed to this labeled PRP for 2 hours under perfusion at a flow rate of 40 mL min^−1. Radioscintigraphy was then used on the washed and rinsed metal-coated strips, to count the number of adhered platelets.
smiles,measurement,value
CC(=O)Oc1cc(C(F)(F)F)ccc1C(=O)O [triflusal],platelet adhesion,effective at reducing platelet adhesion
